Reference: publication PMC6973020, “Quinoline‐Conjugated Ruthenacarboranes: Toward Hybrid Drugs with a Dual Mode of Action” (Chemmedchem, 2019)

How the values were obtained:
[1] = test system: Human fibroblast cell line MRC‐5; test: MTT cell viability assay, MRC‐5; format: cell-based; conditions: 72 h
Text: Thus, care must be taken when comparing their biological activities with those of our previous studies, even with the same cell line, because the covalent vs. non‐covalent combination of drugs might imply different mechanisms of action in the cell.44 Here, we studied the in vitro activity of ruthenacarborane 3, i. e. free acid, and its 8‐hydroxyquinolyl (4) and 4‐{(7‐chloroquinolin‐4‐yl)oxy}butanol‐1‐yl (5) esters, against a panel of cancer cell lines (B16 mouse melanoma, A375 human skin melanoma, MCF‐7 human breast adenocarcinoma, LN229 human glioblastoma, U251 human glioma). Human fibroblast cell line MRC‐5, murine microglial cell line BV‐2 as well as peritoneal exudate cells (Mph), were chosen as models for non‐malignant cells. […] On the other side, we wanted to assess the reproducibility of the viability data, under either controlled (with BSA) or uncontrolled (without BSA) conditions, in two sets of independent assays. […] Cells were exposed to 3–5 for 72 h, after which cell viability was determined via 3‐(4,5‐dimethylthiazol‐2‐yl)‐2,5‐diphenyltetrazolium bromide (MTT) and crystal violet (CV) assays, in parallel (Table 2). Cisplatin was also tested as reference.
Preparation of drug solutions. […] Stock solution of cisplatin was prepared in DMF (10 mM) immediately before use. A stock solution of BSA in PBS was prepared at 1.28 mM concentration, and stored at 4 °C in the dark. […] Alternatively, 3 or 4 (DMSO stock solution) were added to the BSA solution in PBS, always with a 10 : 1 molar ratio of BSA to ruthenacarborane. […]
Colorimetric assays for cellular viability. […] The absorbance was measured with an automated microplate reader at λmax 540 nm, with the reference λmax 670 nm. Untreated cells or cells treated only with BSA (control) were also measured, as reference for BSA‐free and BSA‐containing drug formulations, respectively. […] Cell viability is expressed as percentage (%) relative to control (untreated cultures).58 Experiments were run in three independent replicates. […]

[2] = test system: MCF‐7 cells; test: ApoStat staining (caspase activation), MCF‐7; format: cell-based, human; conditions: MCF‐7, 20 μM, 72 h
Method: Flow cytometry. For gaining better insights into the mechanisms of action of the ruthenium complexes, MCF‐7 and LN229 cells incubated with an IC50 dose of 3 or 4, were analyzed via flow cytometry. Several staining protocols were carried out in parallel, in independent experiments: i) AnnV/PI for the detection of apoptotic cell death, ii) AO for the detection of acidic vacuoles, iii) ApoStat for checking caspase activation, iv) CFSE for detecting interference with cellular proliferation, and v) DAPI for the detection of morphological signs of apoptosis. Untreated cells or cells treated only with BSA (control) were also measured, as reference for BSA‐free and BSA‐containing drug formulations, respectively. […] Channels FL1 (green emission), FL2 (orange emission) and/or FL3 (dark red emission) were used for fluorescence detection, according to the specific staining agent. Sideward Scatter (SSC) for MCF‐7 cells treated with 4 or BSA−4 was also analyzed, with respect to the control, for detection of shifts of cell granularity. […]
Staining Protocols for Flow Cytometric Analysis. […] Finally, cells were washed in PBS, resuspended in PBS (or AnnV‐binding buffer for AnnV/PI), and analysed. […] Cells were then washed, trypsinised, dissolved in PBS and analysed by CyFlow® Space Partec using the PartecFloMax® software (Partec GmbH, Münster, Germany). […]

| Substance | IC50 [1] [µM] | caspase activation (ApoStat) [2] |
| --- | --- | --- |
| closo ‐[3‐(η^6‐p‐Cymene)‐1‐(quinolin‐8‐yl‐acetate)‐3,1,2‐RuC2B9H10] [Compound 4] | 3.9 ± 0.1 | caspase‐independent apoptosis |
| closo‐ [Compound 3, closo‐ [3‐(η^6‐p‐Cymene)‐1‐(CH2COOH)‐3,1,2‐RuC2B9H10]] | 44.2 ± 1.6 | induce caspase activation |
